Measurements: patent US11000033B2, “Ketone or oxime compound, and herbicide” (NISSAN CHEMICAL CORPORATION, priority 2014, dated 2021)

What was measured:
Format in all cases: in vivo
Monochoria vaginalis = experiment: Test Example 2: herbicidal activity, application during weed generation in submerged conditions (symbol C); conditions: Table 23; application herbicide amount 320 g/ha; grade 0-5 by criteria of Test Example 1
Procedure, shortened: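 Seeds sown in flooded alluvial soil (4 cm water) were grown in a 25-30° C greenhouse. At the one- to two-leaf stage, diluted emulsion of compound was applied to the water surface at a predetermined rate. Effect was scored 3 weeks later.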

[1] = tested on: directly sowed rice plant; experiment: Test Example 3: effect on crop by foliage application, Wagner pot (symbol b); conditions: application herbicide amount 320 g/ha
Procedure, shortened: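 Steps: fill a 1/10000-are Wagner pot with alluvial soil; add water and mix to submerge at 0.1–0.5 cm depth; sow rice plus Echinochloa crus-galli var. crus-galli, Leptochloa chinensis and Cyperus difformis; grow in a 25–30 °C greenhouse.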

Digitaria ciliaris [2] = experiment: Test Example 4: herbicidal effect by soil treatment (symbol F); conditions: application herbicide amount 320 g/ha
Procedure, shortened: (§1)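 Seeds were sown in sterilized diluvial soil, covered with about 1.5 cm of soil, and the soil surface was sprayed with a water-diluted emulsion of the compound at a predetermined rate. Plants grew in a greenhouse at 25° C. to 30° C.; effects were scored visually 3 weeks after application.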

[3] = tested on: Echinochloa crus-galli var. crus-galli; experiment: Test Example 4: herbicidal effect by soil treatment (symbol H); conditions: application herbicide amount 320 g/ha
Procedure, shortened: as §1

Avena fatua [4] = experiment: Test Example 4: herbicidal effect by soil treatment (symbol I); conditions: application herbicide amount 320 g/ha
Procedure, shortened: as §1

Alopecurus myosuroides = experiment: Test Example 4: herbicidal effect by soil treatment (symbol J); conditions: application herbicide amount 320 g/ha
Procedure, shortened: as §1

Lolium multiflorum Lam. [5] = experiment: Test Example 4: herbicidal effect by soil treatment (symbol K); conditions: application herbicide amount 320 g/ha
Procedure, shortened: as §1

Apera spica-venti [6] = experiment: Test Example 4: herbicidal effect by soil treatment (symbol L); conditions: application herbicide amount 320 g/ha
Procedure, shortened: as §1

rice = experiment: Test Example 4: effect on crop by soil treatment (symbol b); conditions: application herbicide amount 320 g/ha
Procedure, shortened: (§2)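 Sterilized diluvial soil, spot sowing, ~1.5 cm soil cover; greenhouse 25–30° C.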

beet = experiment: Test Example 4: effect on crop by soil treatment (symbol f); conditions: application herbicide amount 320 g/ha
Procedure, shortened: as §2

rapeseed [7] = experiment: Test Example 4: effect on crop by soil treatment (symbol g); conditions: application herbicide amount 320 g/ha
Procedure, shortened: as §2

Digitaria ciliaris [8] = experiment: Test Example 5: herbicidal effect by foliage application, plastic box (symbol F); conditions: 320 g/ha, 3 weeks after application
Procedure, shortened: (§3)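 Emulsion formulation, diluted with water to the intended rate, was applied uniformly to leaves by small sprayer. Recipients were 14-day greenhouse-grown seedlings (25° C. to 30° C.). Assessment followed at 3 weeks.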

Avena fatua [9] = experiment: Test Example 5: herbicidal effect by foliage application, plastic box (symbol I); conditions: 320 g/ha, 3 weeks after application
Procedure, shortened: as §3

Lolium multiflorum Lam. [10] = experiment: Test Example 5: herbicidal effect by foliage application, plastic box (symbol K); conditions: 320 g/ha, 3 weeks after application
Procedure, shortened: as §3

Apera spica-venti [11] = experiment: Test Example 5: herbicidal effect by foliage application, plastic box (symbol L); conditions: 320 g/ha, 3 weeks after application
Procedure, shortened: as §3

Abutilon theophrasti = experiment: Test Example 5: herbicidal effect by foliage application, plastic box (symbol M); conditions: 320 g/ha, 3 weeks after application
Procedure, shortened: as §3

Amaranthus retroflexus = experiment: Test Example 5: herbicidal effect by foliage application, plastic box (symbol N); conditions: 320 g/ha, 3 weeks after application
Procedure, shortened: as §3

Stellaria media = experiment: Test Example 5: herbicidal effect by foliage application, plastic box (symbol P); conditions: 320 g/ha, 3 weeks after application
Procedure, shortened: as §3

Galium spurium = experiment: Test Example 5: herbicidal effect by foliage application, plastic box (symbol Q); conditions: 320 g/ha, 3 weeks after application
Procedure, shortened: as §3

Veronica persica = experiment: Test Example 5: herbicidal effect by foliage application, plastic box (symbol R); conditions: 320 g/ha, 3 weeks after application
Procedure, shortened: as §3

wheat = experiment: Test Example 5: effect on crop by foliage application, plastic box (symbol e); conditions: 320 g/ha, 3 weeks after application
Procedure, shortened: (§4)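 Crop and weed seeds sown in spots in sterilized diluvial soil in plastic boxes and covered with about 1.5 cm soil. Plants raised in a greenhouse at 25° C. to 30° C. for foliar application.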

rapeseed [12] = experiment: Test Example 5: effect on crop by foliage application, plastic box (symbol g); conditions: 320 g/ha, 3 weeks after application
Procedure, shortened: as §4

Structure (SMILES)	Herbicidal effect grade, C: Monochoria vaginalis (Monochoria vaginalis)	effect on crop b (directly sowed rice plant), grade 0-5 [1]	F: Digitaria ciliaris, herbicidal effect grade (Digitaria ciliaris [2])	H: Echinochloa crus-galli var. crus-galli, herbicidal effect grade [3]	I: Avena fatua, herbicidal effect grade (Avena fatua [4])	J: Alopecurus myosuroides, herbicidal effect grade (Alopecurus myosuroides)	K: Lolium multiflorum Lam., herbicidal effect grade (Lolium multiflorum Lam. [5])	L: Apera spica-venti, herbicidal effect grade (Apera spica-venti [6])	b: directly sowed rice plant, effect on crop grade (rice)	f: beet, effect on crop grade (beet)	g: rapeseed, effect on crop grade (rapeseed [7])	F: Digitaria ciliaris, herbicidal effect (criteria of Test Example 1) (Digitaria ciliaris [8])	I: Avena fatua, herbicidal effect (criteria of Test Example 1) (Avena fatua [9])	K: Lolium multiflorum Lam., herbicidal effect (criteria of Test Example 1) (Lolium multiflorum Lam. [10])	L: Apera spica-venti, herbicidal effect (criteria of Test Example 1) (Apera spica-venti [11])	M: Abutilon theophrasti, herbicidal effect (criteria of Test Example 1) (Abutilon theophrasti)	N: Amaranthus retroflexus, herbicidal effect (criteria of Test Example 1) (Amaranthus retroflexus)	P: Stellaria media, herbicidal effect (criteria of Test Example 1) (Stellaria media)	Q: Galium spurium, herbicidal effect (criteria of Test Example 1) (Galium spurium)	R: Veronica persica, herbicidal effect (criteria of Test Example 1) (Veronica persica)	also measured
C=CCON=C(C)CC1CC(O)=C(c2c(C)cc(C)cc2C)C1=O (stereo not drawn) [1-018]	3 (Herbicidal ratio of 40% or higher and lower than 70%)	5 (Herbicidal ratio of 90% or more (almost completely withered))	–	–	–	–	–	–	–	–	–	–	–	–	–	–	–	–	–	–	F (Digitaria ciliaris) herbicidal effect grade (Digitaria ciliaris [2]): 5 (Herbicidal ratio of 90% or more (almost completely withered)); H (Echinochloa crus-galli var. crus-galli) herbicidal effect grade [3]: 5 (Herbicidal ratio of 90% or more (almost completely withered)); I (Avena fatua) herbicidal effect grade (Avena fatua [4]): 4 (Herbicidal ratio of 70% or higher and lower than 90%); J (Alopecurus myosuroides) herbicidal effect grade (Alopecurus myosuroides): 5 (Herbicidal ratio of 90% or more (almost completely withered)); K (Lolium multiflorum Lam.) herbicidal effect grade (Lolium multiflorum Lam. [5]): 5 (Herbicidal ratio of 90% or more (almost completely withered)); L (Apera spica-venti) herbicidal effect grade (Apera spica-venti [6]): 5 (Herbicidal ratio of 90% or more (almost completely withered)); b (directly sowed rice plant) effect on crop grade (rice): 5 (Herbicidal ratio of 90% or more (almost completely withered)); f (beet) effect on crop grade (beet): 0 (Herbicidal ratio of 5% or lower (almost no effect)); g (rapeseed) effect on crop grade (rapeseed [7]): 4 (Herbicidal ratio of 70% or higher and lower than 90%); F: Digitaria ciliaris, herbicidal effect grade (Digitaria ciliaris [8]): 5 (Herbicidal ratio of 90% or more (almost completely withered)); I: Avena fatua, herbicidal effect grade (Avena fatua [9]): 5 (Herbicidal ratio of 90% or more (almost completely withered)); K: Lolium multiflorum Lam., herbicidal effect grade (Lolium multiflorum Lam. [10]): 5 (Herbicidal ratio of 90% or more (almost completely withered)); L: Apera spica-venti, herbicidal effect grade (Apera spica-venti [11]): 5 (Herbicidal ratio of 90% or more (almost completely withered)); M: Abutilon theophrasti, herbicidal effect grade (Abutilon theophrasti): 3 (Herbicidal ratio of 40% or higher and lower than 70%); N: Amaranthus retroflexus, herbicidal effect grade (Amaranthus retroflexus): 0 (Herbicidal ratio of 5% or lower (almost no effect)); P: Stellaria media, herbicidal effect grade (Stellaria media): 4 (Herbicidal ratio of 70% or higher and lower than 90%); Q: Galium spurium, herbicidal effect grade (Galium spurium): 4 (Herbicidal ratio of 70% or higher and lower than 90%); R: Veronica persica, herbicidal effect grade (Veronica persica): 4 (Herbicidal ratio of 70% or higher and lower than 90%); e: wheat, effect on crop grade (wheat): 5 (Herbicidal ratio of 90% or more (almost completely withered)); g: rapeseed, effect on crop grade (rapeseed [12]): 4 (Herbicidal ratio of 70% or higher and lower than 90%)
CON=C(C)CC1CC(OC(=O)N(C)C)=C(c2c(C)cc(-c3ccc(Cl)cc3)cc2C)C1=O (mixture of isomers) [6-063]	2 (Herbicidal ratio of 20% or higher and lower than 40%)	5 (Herbicidal ratio of 90% or more (almost completely withered))	5 (Herbicidal ratio of 90% or more (almost completely withered))	0 (Herbicidal ratio of 5% or lower (almost no effect))	0 (Herbicidal ratio of 5% or lower (almost no effect))	0 (Herbicidal ratio of 5% or lower (almost no effect))	0 (Herbicidal ratio of 5% or lower (almost no effect))	5 (Herbicidal ratio of 90% or more (almost completely withered))	0 (Herbicidal ratio of 5% or lower (almost no effect))	0 (Herbicidal ratio of 5% or lower (almost no effect))	0 (Herbicidal ratio of 5% or lower (almost no effect))	5 (Herbicidal ratio of 90% or more (almost completely withered))	5 (Herbicidal ratio of 90% or more (almost completely withered))	5 (Herbicidal ratio of 90% or more (almost completely withered))	5 (Herbicidal ratio of 90% or more (almost completely withered))	2 (Herbicidal ratio of 20% or higher and lower than 40%)	0 (Herbicidal ratio of 5% or lower (almost no effect))	0 (Herbicidal ratio of 5% or lower (almost no effect))	3 (Herbicidal ratio of 40% or higher and lower than 70%)	0 (Herbicidal ratio of 5% or lower (almost no effect))	e: wheat, effect on crop (criteria of Test Example 1) (wheat): 4 (Herbicidal ratio of 70% or higher and lower than 90%); g: rapeseed, effect on crop (criteria of Test Example 1) (rapeseed [12]): 4 (Herbicidal ratio of 70% or higher and lower than 90%)
CON=C(C)CC1CC(OC(=O)N2CCOCC2)=C(c2c(C)cc(-c3ccc(Cl)cc3)cc2C)C1=O (mixture of isomers) [6-062]	3 (Herbicidal ratio of 40% or higher and lower than 70%)	5 (Herbicidal ratio of 90% or more (almost completely withered))	3 (Herbicidal ratio of 40% or higher and lower than 70%)	5 (Herbicidal ratio of 90% or more (almost completely withered))	0 (Herbicidal ratio of 5% or lower (almost no effect))	4 (Herbicidal ratio of 70% or higher and lower than 90%)	0 (Herbicidal ratio of 5% or lower (almost no effect))	5 (Herbicidal ratio of 90% or more (almost completely withered))	0 (Herbicidal ratio of 5% or lower (almost no effect))	0 (Herbicidal ratio of 5% or lower (almost no effect))	0 (Herbicidal ratio of 5% or lower (almost no effect))	5 (Herbicidal ratio of 90% or more (almost completely withered))	5 (Herbicidal ratio of 90% or more (almost completely withered))	4 (Herbicidal ratio of 70% or higher and lower than 90%)	5 (Herbicidal ratio of 90% or more (almost completely withered))	3 (Herbicidal ratio of 40% or higher and lower than 70%)	1 (Herbicidal ratio of 5% or higher and lower than 20%)	3 (Herbicidal ratio of 40% or higher and lower than 70%)	5 (Herbicidal ratio of 90% or more (almost completely withered))	5 (Herbicidal ratio of 90% or more (almost completely withered))	e: wheat, effect on crop (criteria of Test Example 1) (wheat): 5 (Herbicidal ratio of 90% or more (almost completely withered)); g: rapeseed, effect on crop (criteria of Test Example 1) (rapeseed [12]): 4 (Herbicidal ratio of 70% or higher and lower than 90%)
